Assay results taken from patent US8207224B2, “Preservatives based on carboxylic anhydrides” (LANXESS Deutchland GmbH, priority 2006, dated 2012).
“And” between values parts separate entries of the source, which are not always exact repeats. Identical values can stand only once.

Tests used:
Format in all cases: cell-based
[1] = test system: Mixture of different problem yeasts from a beverage filling unit; assay: Sterilization test in contaminated apple juice against yeast mix; conditions: germ seed 56.000 cfu/ml; as to Visual evaluation after 4 weeks: key: − = not fermented; + = fermented
Protocol: (§1) Soft drinks were contaminated with the respective stated microorganisms. The active compound concentration required for disinfecting the beverages was determined by sterilization tests.
(§2) Nutrient Media: Yeast orange serum agar (from Oxoid CM657)
(§3) Substances: The substances used were employed neat or as ethanolic or butanolic solutions (for example 2.0% by volume) or suspensions. Dimethyl dicarbonate, Na benzoate, K sorbate, sorbic anhydride and benzoic anhydride were synthesized by known methods or were commercially available. The respective solutions were in each case freshly prepared (alcoholysis). Apparatus: 50 ml tissue culture flasks from Greiner, gauze compresses from Holthans, Thoma counting chamber from Brand.
(§4) As a matter of principle, sterile reagents and apparatus were used. In addition to sterile disposable articles, the required apparatus and reagents were sterilized by suitable measures before use. Sterilization measures were heat treatment in a drying cabinet (at least 8 hours at about 120° C.) or in an autoclave (at least 15 minutes at about 120° C.).
(§5) Before the test was carried out, the beverage substrates were filled into tissue culture flasks. In general, the amount of beverage was 40 ml. Filling was carried out under sterile conditions. At this point in time, it was also possible for the persistent preservatives to be introduced.
(§6) The cultures, which were grown under optimum conditions (in tissue culture flasks from Greiner; 50 ml, 25 cm^2 or in oblique agar tubes), were wetted with up to 30 ml (depending on the test germ) of NaCl solution (if appropriate with addition of about 3 drops of Tween 80), rinsed off or, using glass beads (depending on the germ), scrubbed off intensively and, if required, filtered. Alternatively, it was also possible to employ fluid cultures. Using a microscope and a Thoma chamber, it was possible to carry out a preliminary determination of the germ number. An accurate determination of the germ number of the germ solution used was carried out using the Koch inoculation plate method.
(§7) Depending on the given germ seed (for example 50-500 germs/ml of substrate), the appropriate volume of germ solution (original or dilution) were added and the sample was shaken intensively.
(§8) The doses of active compound, added as pure substance or as appropriate alcoholic solution or suspension in the case of dimethyl dicarbonate and the carboxylic anhydrides, were then added. For a period of about 20 seconds, the samples were immediately shaken intensively.
(§9) The beverage samples were stored at a cultivation temperature of 26° C.±2° C.
(§10) In the case of formerly clear beverages, clouding indicates contamination. In the case of cloudy fruit pulp-containing beverages, visual evaluation was not always possible. Accordingly, in these cases evaluation was carried out as a germ number determination in agar.
The tests were carried out as Stated in Example 1.

[2] = test system: Saccharomyces cerevisiae; assay: Sterilization test in contaminated apple juice against Saccharomyces cerevisiae; conditions: for Germ number after 24 h (carried out in duplicate): contact time 24 hours at 20° C. As to Visual evaluation after 4 weeks: key: − = not fermented; + = fermented.
Protocol: as §1, §2, §3, §4, §5, §6, §7, §8, §9, §10
The tests were carried out as stated in Example 1.

[3] = test system: Mixture of different problem yeasts from a beverage filling unit; assay: Sterilization test in contaminated apple juice against yeast mix; conditions: contact time 24 hours at 20° C., germ seed 56.000 cfu/ml; as to Visual evaluation after 4 weeks: key: − = not fermented; + = fermented
[4] = 250 mg/l, pH 3.5, apple juice, germ seed 56 000 cfu/ml
[5] = 250 mg/l, pH 6.0, apple juice, germ seed 56 000 cfu/ml
[6] = Table 2: 250 mg/l, apple juice, germ seed 56.000 cfu/ml
[7] = 177 mg/l, pH 3.5, apple juice, germ seed 56 000 cfu/ml
[8] = 177 mg/l, pH 6.0, apple juice, germ seed 56 000 cfu/ml
[9] = Table 2: 177 mg/l, apple juice, germ seed 56.000 cfu/ml
[10] = 100 mg/l, pH 3.5, apple juice, germ seed 56 000 cfu/ml
[11] = 150 mg/l, pH 3.5, apple juice, germ seed 56 000 cfu/ml
[12] = 150 mg/l, pH 6.0, apple juice, germ seed 56 000 cfu/ml
[13] = Table 2: 50 mg/l, apple juice, germ seed 56.000 cfu/ml
[14] = Table 2: 100 mg/l, apple juice, germ seed 56.000 cfu/ml

With `COC(=O)OC(=O)OC` [Dimethyl dicarbonate, reference compound] the “Germ number after 24 h (carried out in duplicate)” value (from here on “Germ number after 24 h”) ([1]; 250 mg/l, contact time 24 hours at 20° C.) was 6.8 × 10^6 and 5.7 × 10^6, the “Visual evaluation after 4 weeks” value ([1]; 250 mg/l) was “+” and the “Visual evaluation after 4 weeks” value [2, 4] was “+”. For the same molecule, the “Visual evaluation after 4 weeks” value [2, 5] was “+”, the “Germ number after 24 h” value [2, 6] was <10 and the “Visual evaluation after 4 weeks” value [2, 6] was “+”.
`O=C([O-])c1ccccc1.[Na+]` [Na benzoate, Sodium benzoate, reference compound] was tested, and the “Germ number after 24 h” value ([3]; 177 mg/l) was 1.3 × 10^5 and 1.1 × 10^5, the “Visual evaluation after 4 weeks” value ([1]; 177 mg/l) was “+” and the “Germ number after 24 h” value [2, 7] was 6.8 × 10^5 and 5.3 × 10^5. For the same molecule, the “Visual evaluation after 4 weeks” value [2, 7] was “+”, the “Germ number after 24 h” value [2, 8] was 2.6 × 10^6 and 2.2 × 10^6 and the “Visual evaluation after 4 weeks” value [2, 8] was “+”. The “Germ number after 24 h” value [2, 9] was 1.3 × 10^5 and 1.1 × 10^5 and the “Visual evaluation after 4 weeks” value [2, 9] was “+”.
For `O=C(OC(=O)c1ccccc1)c1ccccc1` [Benzoic anhydride, benzoic anhydride], the “Germ number after 24 h” value [2, 10] was <10, the “Visual evaluation after 4 weeks” value [2, 10] was “−” and the “Visual evaluation after 4 weeks” value ([2]; 100 mg/l, pH 6.0, apple juice, germ seed 56 000 cfu/ml) was “+”. The “Germ number after 24 h” value [2, 11] was <10, the “Visual evaluation after 4 weeks” value [2, 11] was “−” and the “Germ number after 24 h” value [2, 12] was “about 10”. The “Visual evaluation after 4 weeks” value [2, 12] was “+”, the “Germ number after 24 h” value [2, 4] was <10 and the “Visual evaluation after 4 weeks” value [2, 4] was “−”. The “Germ number after 24 h” value [2, 5] was <10 and the “Visual evaluation after 4 weeks” value [2, 5] was “−”.
For `C/C=C/C=C/C(=O)OC(=O)/C=C/C=C/C` [Sorbic anhydride, sorbic anhydride], the “Germ number after 24 h” value ([3]; 50 mg/l) was 2.6 × 10^5 and 1.8 × 10^5, the “Germ number after 24 h” value ([3]; 100 mg/l) was 9.2 × 10^4 and 9.4 × 10^4 and the “Germ number after 24 h” value ([3]; 250 mg/l) was 985 and 1080. The “Visual evaluation after 4 weeks” value ([1]; 50 mg/l) was “+”, the “Visual evaluation after 4 weeks” value ([1]; 100 mg/l) was “+” and the “Visual evaluation after 4 weeks” value ([1]; 250 mg/l) was “−”. The “Germ number after 24 h” value [2, 13] was <10, the “Visual evaluation after 4 weeks” value [2, 13] was “−” and the “Germ number after 24 h” value [2, 14] was <10. For the same molecule, the “Visual evaluation after 4 weeks” value [2, 14] was “−”, the “Germ number after 24 h” value [2, 6] was <10 and the “Visual evaluation after 4 weeks” value [2, 6] was “−”.
